In patent US20210361731A1 (Phenolics, LLC, priority 2020, published 2021):
Values belong to the molecule of their own block, whether it stands above or below them.

What was measured:
brain aging = details: 1 g daily, 12 weeks; cited from earlier work
vegetarian subjects = details: 5 g/day for six weeks; cited from earlier work
[1] = 100-300 mg/day; cited from earlier work
[2] = tested on: patients with probable senile dementia of Alzheimer's type; details: cited from earlier work
rats = details: 250 mg/kg injections for three weeks, three weeks after pilocarpine; cited from earlier work
hippocampus of the rats = details: cited from earlier work
Caco2 monolayer = test: Permeability of α-GPC through a Caco2 monolayer in the presence and absence of blueberry polyphenol extract; format: in vitro ADME; set-up: cumulative L-α-GPC, averaged over runs: scale not given here; details: for cumulative L-α-GPC, averaged over runs: average of runs 1 and 2; for cumulative L-α-GPC: 5 mM α-GPC in DPBS alone or with 1 mg/ml blueberry polyphenol extract
Experimental: In another series of experiments, the permeability of α-GPC through a Caco2 monolayer was measured to determine whether the presence of a blueberry-based polyphenol extract affected permeability.
More particularly, donor GPC concentrations were reduced to 5 mM. […] This experiment consisted of two independent runs (as identified below as run 1 and run 2). […] The data from the runs is summarized in Table 2, illustrated in FIG. 2 (Total Alpha GPC permeability through a Caco2 monolayer) and averaged below in Table 3. The averaged data is illustrated in FIG. 3. In each of the graphs, the vertical axis units are cumulative L-α-GPC in μg/cm2 and the horizontal axis units are minutes.

[3] = tested on: patients with dementia disorders; details: 1570 patients in 10 studies; cited from earlier work
[4] = tested on: cognitive impairment due to Alzheimer's disease; details: 400 mg capsules three times daily; cited from earlier work

Compound: NC(=O)CN1CC(O)CC1=O (centres unmarked) [oxiracetam]
- clinical response in brain aging (brain aging): early improvement which was maintained during the therapy but was rapidly attenuated after discontinuation of the therapy

Compound: CN(CC(=O)O)C(=N)N [creatine]
- working memory and intelligence (vegetarian subjects): Positive results

- effect of α-GPC on permeation of the blueberry polyphenols through the Caco2 monolayer (Caco2 monolayer): did not significantly change
- cumulative L-α-GPC, averaged over runs (Caco2 monolayer; 15 min): 0.128 μg/cm2
- cumulative L-α-GPC, averaged over runs (Caco2 monolayer; 30 min): 0.471 μg/cm2
- cumulative L-α-GPC, averaged over runs (Caco2 monolayer; 45 min): 0.643 μg/cm2
- cumulative L-α-GPC, averaged over runs (Caco2 monolayer; 60 min): 0.815 μg/cm2
- cumulative L-α-GPC, averaged over runs (Caco2 monolayer; 75 min): 1.017 μg/cm2
- cumulative L-α-GPC, averaged over runs (Caco2 monolayer; 90 min): 1.292 μg/cm2
- cumulative L-α-GPC (Caco2 monolayer; run 1, 15 min): 18.75 μg/cm2
- cumulative L-α-GPC (Caco2 monolayer; run 1, 30 min): 41.37 μg/cm2
- cumulative L-α-GPC (Caco2 monolayer; run 1, 45 min): 67.92 μg/cm2
- cumulative L-α-GPC (Caco2 monolayer; run 1, 60 min): 103.2 μg/cm2
- cumulative L-α-GPC (Caco2 monolayer; run 1, 75 min): 150.0 μg/cm2
- cumulative L-α-GPC (Caco2 monolayer; run 1, 90 min): 222.4 μg/cm2
- cumulative L-α-GPC (Caco2 monolayer; run 2, 15 min): 47.16 μg/cm2
- cumulative L-α-GPC (Caco2 monolayer; run 2, 30 min): 200.9 μg/cm2
- cumulative L-α-GPC (Caco2 monolayer; run 2, 45 min): 262.8 μg/cm2
- cumulative L-α-GPC (Caco2 monolayer; run 2, 60 min): 316.1 μg/cm2
- cumulative L-α-GPC (Caco2 monolayer; run 2, 75 min): 373.3 μg/cm2
- cumulative L-α-GPC (Caco2 monolayer; run 2, 90 min): 442.1 μg/cm2
Compound: C[N+](C)(C)CCOP(=O)([O-])OC[C@H](O)CO [α-GPC, Alpha-glycerylphosphorylcholine]
- memory, concentration, and focus [1]: helps maintain and improve
- peak power and force output during strenuous exercises [1]: helps to increase
- improvements compared with the ST200 patients ([2]; ST200 1000 mg morning and 500 mg afternoon): significantly better
- intellectual and emotional impairments ([2]; oral 800 mg morning and 400 mg afternoon, six months): significantly improved
- cognitive function (rats): improved
- neurogenesis (rats): increased
- acetylcholine release in the hippocampus (hippocampus of the rats; 75 mg/kg i.g.): able to increase acetylcholine release
- dose with maximum effect on acetylcholine release (hippocampus of the rats; i.g.): 300 mg/kg
- patient clinical results, cognitive symptoms of adult-onset dementia disorders [3]: improved patient clinical results
- treatment of the cognitive symptoms of Alzheimer's disease [4]: useful
- clinical response in brain aging (brain aging): slower but more sustained
